Measurements reported in patent US20260284209A1, “POLYPEPTIDE ADJUVANTS AND USES THEREOF” (BOARD OF REGENTS, THE UNIVERSITY OF TEXAS SYSTEM, priority 2023, published 2026).

Key:
[1] = tested on: cGAS-STING, MyD88 and canonical NF-κB pathways in M2 BMDMs; assay: Western blotting of cGAS-STING, MyD88 and canonical NF-κB pathways; assay type: cell-based, mouse; conditions: excessive ER stress induction
Protocol: A western blot was performed as described in Example 1, to assess whether the cationic polypeptides activate innate immune sensors in APCs.

[2] = tested on: ER stress markers BiP, EIF2α, CHOP, XBP1 in bone marrow-derived macrophages; assay: ER stress markers (western blotting, XBP1 RT-qPCR); assay type: cell-based, mouse
Protocol: M2 BMDMs (1.5×10^7 cells/100 mm^2 petri dish) or cancer cells (2×10^6 cells per 6-well plates) were treated with the experimental solutions. To evaluate inhibitory conditions, cells were pre-treated with CsA (10 μM, TCI America) for 3 h, or co-treated with 4-PBA (5 mM in phosphate-buffered saline [PBS], Tocris Bioscience, USA) and chloroquine (10 μg/mL, Alfa Aesar, USA). Each protein was extracted by using RIPA buffer containing 1% protease inhibitor and 1% phosphatase inhibitor cocktail. Protein concentrations were adjusted to 3 mg/mL by using a BCA kit, with FBS used as a standard. Electrophoresis was carried out by loading proteins (40 μg) into each lane of a sodium dodecyl sulfate-polyacrylamide gel (SDS-PAGE) gel, after which the proteins were transferred to a polyvinylidene fluoride membrane. After blocking, the PVDF membrane was treated with the corresponding primary antibody, and then washed with TBS-T three times before the treatment with the secondary antibody. The blot signals were visualized with a Chemidoc system (ChemiDoc MP imaging system, BioRad, USA).

Substance: tunicamycin
- activation of MyD88 and STING in macrophages [1]: inhibited activation of MyD88 and STING in macrophages
- ER stress / ER stress markers [2]: detrimental levels
